Experimental data as given in US10285972B2, “Trans-2-nonadecyl-4-hydroxymethyl-1,3-dioxolane and producing methodthereof” (Greenyn Biotechnology Co., Ltd, priority 2014, dated 2019).

Assays:
[1] = Body weight and food intake of mice fed 45% high-fat diet for 8 weeks; type: in vivo, C57BL/6 mice; details: for Final wight: mean±SE
Procedure: (§1) The 4 weeks-old male C57BL/6 mice were divided into 5 groups and treated with different feeding conditions, wherein the group 1 was the blank control fed with normal diet and water, the group 2 was fed with 45% high-fat diet and water, the group 3 was fed with 45% high-fat diet, water and 10 mg/Kg the compound TNHD, the group 4 was fed with 45% high-fat diet, water and 20 mg/Kg the compound TNHD, and the group 5 was fed with 45% high-fat diet, water and 200 mg/Kg Silymarin. Feeding for 8 weeks, and then all the mice were sacrificed.
At the end of the experiment, taking photographs of the each group were shown as FIG. 4.
The body weight and food intake in the each group were recorded in the table 1, wherein the data is expressed as the mean±SE.

liver = assay: Organ weights, liver appearance and liver staining (H&E, Surius red) of mice fed 45% high-fat diet; type: in vivo, C57BL/6 mice; details: for Liver weight: 8 weeks
Procedure: as §1
The weights of liver, kidney and spleen of the mice in the each group were measured and recorded in table 2. The macroscopic appearance of the liver from the mice of the each group was shown as FIG. 6. Furthermore, the liver collected from the sacrificed mice in each groups was fixed with formalin. After the fixation, the liver tissue of the each group was paraffin-embedded for histology section and stained by H&E and Surius red for analysis.

[2] = system: fatty liver and obesity animal model prepared by ethanol-containing diet (Lieber-DeCarli); assay: Fatty liver and obesity animal model prepared by ethanol-containing diet (Lieber-DeCarli); type: in vivo; details: FIGS. 9 to 14

Which “Effect on body weight, high dose compared with low dose” value ([1]; 45% high-fat diet mice, 20 mg/Kg vs 10 mg/Kg) does the source give for `CCCCCCCCCCCCCCCCCCC[C@@H]1OC[C@@H](CO)O1` (relative stereo) [TNHD, trans-2-nonadecyl-4-hydroxymethyl-1,3-dioxolane] here?
The value was “high dose is more effective”.

And the “Effect on body weight increase of obesity mouse” value ([1]; 45% high-fat diet mice, 10 or 20 mg/Kg, 8 weeks)?
Its value is “prevent and inhibit the body weight of obesity mouse to increase”.

And the “Effect on weight loss compared with Silymarin” value ([1]; 45% high-fat diet mice, Silymarin 200 mg/Kg)?
The value was “more effective to weight loss than Silymarin”.

And the Final wight ([1]; group 3: 45% high-fat diet + 10 mg/Kg TNHD, 8 weeks)?
The Final wight was 29.8 ± 2.0 g.

What about the Final wight ([1]; group 4: 45% high-fat diet + 20 mg/Kg TNHD, 8 weeks) of the same molecule?
Its Final wight is 28.1 ± 1.6 g.

What about the “Lipid accumulation in the liver (H&E and Surius red staining)” value (liver; 45% high-fat diet mice, FIGS. 7 and 8) of the same molecule?
The value was “inhibit the lipid accumulation in the liver effectively”.

And the Liver weight (liver; group 3: 45% high-fat diet + 10 mg/Kg TNHD)?
Its Liver weight is 5.23 ± 0.84 g.

And the “Macroscopic appearance of the liver” value (liver; group 3 or group 4 (10 or 20 mg/Kg), 45% high-fat diet, FIG. 6)?
Its value is “the liver shows the red color and has smooth surface”.

And the Liver weight (liver; group 4: 45% high-fat diet + 20 mg/Kg TNHD)?
The Liver weight was 5.63 ± 0.61 g.

And the “Effect on obesity, fatty liver or liver damage caused by alcohol” value [2]?
The value was “effective to treat or/and prevent obesity, fatty liver or liver damage caused by alcohol”.
